Source: patent US20240300951A1, “Pyrazolopyridinone Compounds” (BeiGene Ltd., priority 2021, published 2024)

Columns and labels:
DGKζ = molecular target: T1, DGKζ (Homo sapiens, UniProt Q13574); test: Biochemical DGK IC50 assay, DGKζ ADP-Glo assay; details: full length DGKζ 0.5 nM, ATP 140 μM, DAG 80 μM
T1 construct: His (N); TEV cleavage site (N); made in house; host or cells: Sf9 insect cells (baculovirus, Bac-to-Bac)
Description: (§1) Enzymatic reactions of DGKζ, DGKα and DGKδ were performed using ADP-Glo assay with lipid micelle substrate. […] Full length DGKα (D21-10BG, SignalChem) and full length DGKδ (D23-10G, SignalChem) were purchased. Lipid micelle was prepared by dissolving DAG (Sigma, 317505-10MG) and PS (Sigma, P7769-100MG) with chloroform which was furtherly removed by rotary evaporation. The resulted product was resuspended in buffer containing 25 mM HEPES pH 7.0, 0.5 mM EDTA and 160 mM Octyl β-D glucopyranoside by vigorous mixing and ultrasonic (IID, Scientz)
(§2) The ranges of compounds final concentration were 1.55-10000 nM or 23.3-150000 nM. 3 μL 2× enzyme solution was added to wells.
Human His-TEV-DGK-zeta-pFastBac1 and human baculovirus samples was generated using the Bac-to-Bac baculovirus expression system (Invitrogen) according to the manufacturer's protocol. The DNA used for expression of DGK-zeta, have SEQ ID Nos: 1. Baculovirus amplification was achieved using infected SF9 cells at 1:2000 virus/cells ratios, and grown for 96 hours at 27° C. post-transfected.
The expression scaled up for each protein was carried out in the […] from CORNING. 4 L of 3×10^6 cells/mL Sf9 cells (Expression System, Invitrogen) grown in SF900™ II SFM insect medium (Expression System) was infected with virus stock at 1:200 virus/cells ratio, and grown for 48 hours at 27° C. post-transfection. The infected cell culture was harvested by centrifugation at 6000 rpm for 15 min 4° C. in a SORVALL LYNX6000 centrifuge. The cell pellets were stored at −80° C.
Full length human DGK produced as described above, was purified from Sf9 baculovirus-infected insect cell paste. The cells were lysed using sonication method, and the lysates were clarified by centrifugation.

DGKα = molecular target: T2, DGKα (Homo sapiens, UniProt P23743); test: Biochemical DGK IC50 assay, DGKα ADP-Glo assay; details: full length DGKα 7.5 nM, ATP 140 μM, DAG 80 μM
T2 construct: Full length DGKα (D21-10BG, SignalChem); purchased SignalChem D21-10BG
T2 sequence (P23743 whole entry): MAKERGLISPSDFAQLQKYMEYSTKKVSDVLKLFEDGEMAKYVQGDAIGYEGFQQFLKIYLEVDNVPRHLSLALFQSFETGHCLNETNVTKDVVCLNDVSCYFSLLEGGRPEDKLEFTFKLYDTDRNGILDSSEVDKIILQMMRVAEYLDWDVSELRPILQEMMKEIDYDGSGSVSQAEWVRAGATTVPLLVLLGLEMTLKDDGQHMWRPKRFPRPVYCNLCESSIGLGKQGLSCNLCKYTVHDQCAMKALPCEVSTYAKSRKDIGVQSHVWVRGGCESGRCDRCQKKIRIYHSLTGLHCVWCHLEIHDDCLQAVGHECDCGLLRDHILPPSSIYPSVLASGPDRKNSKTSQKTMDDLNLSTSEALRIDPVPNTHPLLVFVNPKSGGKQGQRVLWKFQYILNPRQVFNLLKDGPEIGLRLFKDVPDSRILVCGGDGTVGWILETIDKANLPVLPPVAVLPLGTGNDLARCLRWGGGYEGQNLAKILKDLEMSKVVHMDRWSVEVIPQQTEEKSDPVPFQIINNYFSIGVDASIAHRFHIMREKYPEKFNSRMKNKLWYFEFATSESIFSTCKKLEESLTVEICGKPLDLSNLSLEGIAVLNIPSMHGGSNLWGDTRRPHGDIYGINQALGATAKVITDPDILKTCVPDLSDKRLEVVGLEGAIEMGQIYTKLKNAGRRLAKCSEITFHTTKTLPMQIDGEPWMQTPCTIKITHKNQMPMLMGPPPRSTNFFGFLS
Description: as §1, §2

T1 sequence (Q13574 1-929 isoform Q13574-4): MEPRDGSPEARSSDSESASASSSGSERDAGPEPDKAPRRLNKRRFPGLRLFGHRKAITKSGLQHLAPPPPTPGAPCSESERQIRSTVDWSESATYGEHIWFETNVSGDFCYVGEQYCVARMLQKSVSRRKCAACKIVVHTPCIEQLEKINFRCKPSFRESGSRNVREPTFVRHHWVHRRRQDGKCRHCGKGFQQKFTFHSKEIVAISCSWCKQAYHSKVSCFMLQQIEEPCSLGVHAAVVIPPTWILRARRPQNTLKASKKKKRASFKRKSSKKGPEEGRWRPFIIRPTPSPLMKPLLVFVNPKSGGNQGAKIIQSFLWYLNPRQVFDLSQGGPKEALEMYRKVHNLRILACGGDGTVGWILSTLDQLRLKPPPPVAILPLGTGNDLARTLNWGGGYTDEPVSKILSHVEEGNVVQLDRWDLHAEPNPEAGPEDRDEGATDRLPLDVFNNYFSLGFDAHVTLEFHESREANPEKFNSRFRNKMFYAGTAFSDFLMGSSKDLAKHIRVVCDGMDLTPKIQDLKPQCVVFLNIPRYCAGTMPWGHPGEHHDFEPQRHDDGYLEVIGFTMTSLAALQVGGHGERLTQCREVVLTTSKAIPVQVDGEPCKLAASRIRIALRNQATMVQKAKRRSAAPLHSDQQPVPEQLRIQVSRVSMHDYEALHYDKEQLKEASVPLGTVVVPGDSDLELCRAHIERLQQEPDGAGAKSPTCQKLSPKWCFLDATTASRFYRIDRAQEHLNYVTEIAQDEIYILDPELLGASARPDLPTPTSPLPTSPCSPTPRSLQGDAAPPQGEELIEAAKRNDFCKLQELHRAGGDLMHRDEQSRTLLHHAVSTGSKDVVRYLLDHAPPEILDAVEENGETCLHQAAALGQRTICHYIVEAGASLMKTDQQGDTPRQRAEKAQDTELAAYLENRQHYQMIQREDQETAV

Row | Molecule | IC50 (DGKζ) [µM] | IC50 (DGKα) [µM]
1 | COc1cc(F)ccc1C(C)N1C[C@H](C)N(c2cc(=O)n(C)c3cn(CC#N)nc23)C[C@H]1C (stereo partly drawn) [Compound A248, 2-(7-((2S,5R)-4-(1-(2-omethoxy-4-fluorophenyl)ethyl)-2,5-dimethylpiperazin-1-yl)-4-methyl-5-oxo-4,5-dihydro-2H-pyrazolo[4,3-b]pyridin-2-yl)acetonitrile] | 0.579 | –
2 | CC#CCn1cc2c(n1)c(N1C[C@@H](CC)N(C(C)c3ccc(F)cc3C(F)(F)F)C[C@@H]1CC)cc(=O)n2C (single isomer, unassigned) [Compound A238a] | 2.39 | > 10
3 | COCc1cc(F)ccc1C(C)N1C[C@H](C)N(c2cc(=O)n(C)c3cn(CC#N)nc23)C[C@H]1C (single isomer, unassigned) [Compound A29a] | 2.22 | > 10
4 | CC[C@@H]1CN(c2cc(=O)[nH]c3cn(CC#N)nc23)[C@@H](C)CN1C(C)c1ccc2nccnc2c1 (single isomer, unassigned) [Compound A177b] | 3.6 | > 10
5 | CC[C@@H]1CN(c2c(Cl)c(=O)n(C)c3cn(CC#N)nc23)CCN1C(C)c1ccc2nccnc2c1 (single isomer, unassigned) [Compound A162a] | 4.48 | > 10
6 | CC[C@H]1CN(C(C)c2ncccc2OC)[C@H](CC)CN1c1cc(=O)n(C)c2cn(CC#N)nc12 (single isomer, unassigned) [Compound A92b] | 2.84 | –
7 | CC[C@H]1CN(C(C)c2ccc(C(F)F)nc2)[C@H](CC)CN1c1cc(=O)n(C)c2cn(CC#N)nc12 (single isomer, unassigned) [Compound A351b] | 3.25 | 1.19
8 | CC[C@H]1CN(C(C)c2nc(Cl)cn2CC)[C@H](CC)CN1c1cc(=O)n(C)c2cn(CC#N)nc12 (single isomer, unassigned) [Compound A191a] | 6.78 | > 10
9 | CC[C@H]1CN(C(C)c2ccc(F)cc2C(F)F)[C@H](CC)CN1c1cc(=O)n(C)c2cn(CC#N)nc12 (single isomer, unassigned) [Compound A172a] | 4.32 | > 10
10 | 7-((2S,5R)-4-(1-(1-(2,2-difluoroethyl)-1H-pyrazol-5-yl)ethyl)-2,5-diethylpiperazin-1-yl)-4-methyl-2,4-dihydro-5H-pyrazolo[4,3-b]pyridin-5-one [Compound A228] | 9.2 | > 10
11 | CC[C@H]1CN(C(C)c2ncccc2OC)[C@H](CC)CN1c1cc(=O)n(C)c2cn(CC#N)nc12 (single isomer, unassigned) [Compound A92a] | > 10 | > 10
12 | CC(c1ccc2c(c1)OCC(C)(C)O2)N1C[C@H](C)N(c2cc(=O)n(C)c3cn(CC#N)nc23)C[C@H]1C (single isomer, unassigned) [Compound A46e] | 6.16 | 26
13 | CCC1CN(c2c(C#N)c(=O)n(C)c3cn(CC#N)nc23)CCN1C(C)c1ccc2nccnc2c1 [Compound A169, 2-(cyanomethyl)-7-((2S,5R)-3-ethyl-4-(1-(quinoxalin-6-yl)ethyl)piperazin-1-yl)-4-methyl-5-oxo-4,5-dihydro-2H-pyrazolo[4,3-b]pyridine-6-carbonitrile] | 0.701 | > 10
14 | CC[C@H]1CN(C2CCCc3ccccc32)[C@H](CC)CN1c1cc(=O)n(C)c2cn(CC#N)nc12 (single isomer, unassigned) [Compound A146b] | 4.69 | > 10
15 | CC[C@H]1CN(C(C)c2ccc3nccnc3c2)[C@H](CC)CN1c1cc(=O)n(C(C)C)c2cn(CC#N)nc12 (single isomer, unassigned) [Compound A190b] | > 10 | –
16 | Cc1nc2ccc(C(C)N3C[C@H](C)N(c4cc(=O)n(C)c5cn(CC#N)nc45)C[C@H]3C)cn2n1 (mixture of isomers) [Compound A321] | 4.02 | –
17 | CC[C@H]1CN(C(C)c2ccc(CN3CCOCC3)cc2)[C@H](CC)CN1c1cc(=O)n(C)c2cn(CC#N)nc12 (single isomer, unassigned) [Compound A383b] | 4.59 | 2.79
18 | CC[C@H]1CN(C2CCOc3ccccc32)[C@H](CC)CN1c1cc(=O)n(C)c2cn(CC#N)nc12 (single isomer, unassigned) [Compound A150a] | 2.75 | 5.83

More lines, in order of falling IC50 (DGKζ), values ahead:

Row | IC50 (DGKζ) [µM] | IC50 (DGKα) [µM] | Molecule
19 | 1.23 | 9.03 | CC[C@H]1CN(C(C)c2cccc(C)c2C(F)(F)F)[C@H](CC)CN1c1cc(=O)n(C)c2cn(CC#N)nc12 (single isomer, unassigned) [Compound A110b]
20 | 1.19 | 5.09 | CC[C@@H]1CN(c2c(F)c(=O)[nH]c3cn(CC#N)nc23)[C@@H](C)CN1C(C)c1ccc2nccnc2c1 (single isomer, unassigned) [Compound A194b]
21 | 1.18 | – | CC[C@H]1CN(C(C)c2nc(Cl)cn2CC)[C@H](CC)CN1c1cc(=O)n(C)c2cn(CC#N)nc12 (single isomer, unassigned) [Compound A191b]
22 | 1.12 | 11.2 | CC[C@H]1CN(C(C)c2ccc3nc(OC)cnc3c2)[C@H](CC)CN1c1cc(=O)n(C)c2cn(CC#N)nc12 (single isomer, unassigned) [Compound A281b]
23 | 0.85 | 1.2 | CC[C@H]1CN(C(C)c2ccc(C3CC3)cc2F)[C@H](CC)CN1c1cc(=O)n(C)c2cn(CC#N)nc12 (single isomer, unassigned) [Compound A72a]
24 | 0.543 | 0.0825 | CC[C@H]1CN(C2CCOc3ccccc32)[C@H](CC)CN1c1cc(=O)n(C)c2cn(CC#N)nc12 (single isomer, unassigned) [Compound A150b]
25 | 0.283 | 0.44 | CC[C@H]1CN(C2CCCc3ccccc32)[C@H](CC)CN1c1cc(=O)n(C)c2cn(CC#N)nc12 (single isomer, unassigned) [Compound A146a]
26 | 0.172 | > 10 | CC[C@H]1CN(C(C)c2ccc3nccnc3c2)[C@H](CC)CN1c1cc(=O)n(C(C)C)c2cn(CC#N)nc12 (single isomer, unassigned) [Compound A190a]
27 | 0.166 | > 150 | CC[C@@H]1CN(c2cc(=O)n(C)c3cn(CC#N)nc23)[C@@H](C)CN1C(C)c1ccc(F)cc1C(F)(F)F (single isomer, unassigned) [Compound A218a]
28 | 0.151 | 1.16 | CC[C@H]1CN(C(C)c2cccc(C)c2C(F)(F)F)[C@H](CC)CN1c1cc(=O)n(C)c2cn(CC#N)nc12 (single isomer, unassigned) [Compound A110a]
29 | 0.135 | 3.34 | CC(c1ccc2c(c1)OCC(C)(C)O2)N1C[C@H](C)N(c2cc(=O)n(C)c3cn(CC#N)nc23)C[C@H]1C (single isomer, unassigned) [Compound A46c]
30 | 0.07 | > 150 | Cc1c2c(nn1CC#N)c(N1C[C@@H](C)N(C(C)c3ccc(F)cc3C(F)(F)F)C[C@@H]1C)nc(=O)n2C (single isomer, unassigned) [Compound A267b]
31 | 0.021 | 51.7 | Cc1cnc2ccc([C@H](C)N3C[C@H](C)N(c4cc(=O)n(C)c5cn(CC#N)nc45)C[C@H]3C)cc2n1 (single isomer, unassigned) [Compound A269d]
32 | 0.015 | 0.083 | CC[C@H]1CN(C(C)c2ccc(C3CC3)cc2F)[C@H](CC)CN1c1cc(=O)n(C)c2cn(CC#N)nc12 (single isomer, unassigned) [Compound A72b]
33 | 0.009 | 11.4 | CC(c1ccc2c(c1)OC(C)(C)CO2)N1C[C@H](C)N(c2cc(=O)n(C)c3cn(CC#N)nc23)C[C@H]1C (single isomer, unassigned) [Compound A46d]
